These results are taken from US20100197687A1, “Indoles Useful in the Treatment of Inflammation” (priority 2005, published 2010).

Counter-ions that a name gives are not always drawn.

In the assay the target is T1, mPGES-1 (Homo sapiens, UniProt O14684).
T1 construct: made in house; host or cells: E. coli
T1 sequence (O14684 1-152): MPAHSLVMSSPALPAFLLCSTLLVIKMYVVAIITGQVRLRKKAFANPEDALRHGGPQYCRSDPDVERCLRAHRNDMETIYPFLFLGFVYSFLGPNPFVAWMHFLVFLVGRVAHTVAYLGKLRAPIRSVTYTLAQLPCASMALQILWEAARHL
The experiment in a line: mPGES-1 biological test (conversion of PGH2 to PGE2, HPLC read-out). The class given is biochemical. The note with it: mPGES-1 expressed in E. coli, membrane fraction; 25 min pre-incubation with inhibitor, 60 s with PGH2, room temperature; read-out: IC50 (inhibition of mPGES-1). As to the method: In the assay mPGES-1 catalyses the reaction where the substrate PGH2 is converted to PGE2. mPGES-1 is expressed in E. coli and the membrane fraction is dissolved in 20 mM NaPi-buffer pH 8.0 and stored at −80° C. In the assay mPGES-1 is dissolved in 0.1M KPi-buffer pH 7.35 with 2.5 mM glutathione. The stop solution consists of H2O/MeCN (7/3), containing FeCl2 (25 mM) and HCl (0.15 M). The assay is performed at room temperature in 96-well plates. Analysis of the amount of PGE2 is performed with reversed phase HPLC (Waters 2795 equipped with a 3.9×150 mm C18 column). The mobile phase consists of H2O/MeCN (7/3), containing TFA (0.056%), and absorbance is measured at 195 nm with a Waters 2487 UV-detector.
The following is added chronologically to each well: • 1. 100 μL mPGES-1 in KPi-buffer with glutathione. Total protein concentration: 0.02 mg/mL. • 2. 1 μL inhibitor in DMSO. Incubation of the plate at room temperature for 25 minutes. • 3. 4 μL of a 0.25 mM PGH2 solution. Incubation of the plate at room temperature for 60 seconds. • 4. 100 μL stop solution. • 180 μL per sample is analyzed with HPLC.
With `CC(C)Oc1ccc(-n2c(C(=O)O)c(CN3CCOCC3)c3cc(-c4ccc(C(C)(C)C)cc4)ccc32)cc1` [Example 2, 5-(4-tert-Butylphenyl)-1-(4-isopropoxyphenyl)-3-morpholin-4-ylmethylindole-2-carboxylic acid], the 50% inhibitory concentration (IC50) – broadly, the concentration that gives 50% inhibition – was found to be 2600 nM.

`CC(C)Oc1ccc(-n2c(C(=O)O)c(CN(C)C)c3cc(-c4ccc(C(C)(C)C)cc4)ccc32)cc1` [Example 8, 5-(4-tert-Butylphenyl)-3-dimethylaminomethyl-1-(4-isopropoxyphenyl)indole-2-carboxylic acid]: the half-inhibitory concentration (IC50) was 560 nM.

Regarding `CC(C)Oc1ccc(-n2c(C(=O)O)c(CNC(CO)CO)c3cc(-c4ccc(C(F)(F)F)cn4)ccc32)cc1` [Example 9, 3-[(1,3-dihydroxypropan-2-ylamino)methyl]-1-(4-isopropoxyphenyl)-5-(5-trifluoromethylpyridin-2-yl)indole-2-carboxylic acid dihydrochloride], the IC50 amounted to 2100 nM.

In the case of `CC(C)(C)c1ccc(-c2ccc3c(c2)cc(CCC(=O)O)n3-c2ccc(OC3CCCC3)cc2)cc1` [Example 29, 3-[5-(4-tert-Butylphenyl)-1-(4-cyclopentyloxyphenyl)indol-2-yl]-propionic acid], the half-inhibitory concentration (IC50) was 780 nM.

For `CC(C)Oc1ccc(-n2c(CC(=O)O)cc3cc(Oc4ccc(Cl)cc4)ccc32)cc1` [Example 32, [5-(4-Chlorophenoxy)-1-(4-isopropoxyphenyl)indol-2-yl]acetic acid], the 50% inhibitory concentration (IC50) came out at 3200 nM.
